These results are taken from patent publication US6752929B1, “Methods of separating FTC isomers and derivatives thereof” (Johnson Matthey Pharmaceutical Materials, Inc., priority 1999, dated 2004).

The nature of this data set: Solubility of cis-FTC Ester in various solvent systems. Format: physicochemical. Conditions: 100% ethyl acetate, 20° C. The protocol:
Therefore, the solubility of the FTC ester in several solvent systems was determined.

`CCCC(=O)OC[C@@H]1O[C@H](n2cc(F)c(N)nc2=O)CS1` (relative stereo) [cis-FTC Ester, cis-{5-(4-amino-5-fluoro-2-oxo-1(2H)-pyrimidinyl)-1,3-oxathiolan-2-yl}methyl butanoate] gave a Solubility of 3.03%??.
